This note sets out measurements from PMC9053583, “A novel series of phenolic temozolomide (TMZ) esters with 4 to 5-fold increased potency, compared to TMZ, against glioma cells irrespective of MGMT expression” (RSC Advances, 2020).

In one data set the test system is U87-MG cells. The experiment in a line: CellTiter-Glo cytotoxicity against U87-MG cells. The settings on record: Homo sapiens, U-87 MG, 144 hours incubation, IC50 ± SD (n = 3). The data set is classed as cell-based. On the procedure: (§1) Apoptosis of glioma cells induced by TMZ, occurs at least 120 hours after treatment.[7] Consequently, cells were incubated for 144 hours with specified TMZ analogues in the in vitro investigations in order to obtain more reliable IC50 values.
(§2) 1321-N1 (human astrocytoma) was maintained in DMEM medium supplemented with 2 mM L-glutamine and 10% FBS. GOS-3, (human brain mixed astro-oligodendroglioma) was maintained in DMEM medium supplemented with 2 mM L-glutamine and 10% […]. U87-MG, (human glioblastoma) and SVGp12 (normal human astroglia) were maintained in EMEM medium supplemented with 2 mM L-glutamine, 1 mM sodium pyruvate and 10% FBS. All cell lines were incubated at 37 °C and 5% CO2 in a humidified incubator. Primary BTNW cultures were maintained in Ham's F10 nutrient mixture, containing 20 mM HEPES, 2 mM glutamine and 10% FBS. Primary cultures were incubated in a humidified incubator at 37 °C.
(§3) Cells were seeded in the appropriate media in each well of a Costar 96-well plate at a density of 5 × 10^2 immortalised cells; 2 × 10^3 (primary cells). The plates were incubated at 37 °C and 5% CO2 in a humidified incubator for 24 hours to allow cells to adhere. Each of the drugs tested were dissolved in DMSO to afford a 200 mM stock solution. The stock solutions were diluted with medium to afford the final working concentrations, ensuring DMSO concentration was no greater than 0.5% (v/v). Drug concentrations were added to the cells and incubated for 144 hours. After incubation, the drug concentrations were removed and replaced with 100 μL of CellTiter-Glo® and 100 μL of media. The luminescence of each well was measured on GENios Pro plate reader. The results for each of the drug concentrations were expressed as a percentage of the control wells. For cell lines, the regression equation for a polynomial line of best fit of order 2 was used to calculate the IC50. In the case of the in vitro model used in the present study, the IC50 was defined as the concentration of drug that results in a 50% reduction in oxyluciferin production. Primary culture cells were incubated with clinically relevant concentrations for 144 hours. Viability was expressed as a percentage of the control wells. Each experiment involving cell lines was carried out in triplicate of triplicates. Experiments using patient derived primary cultures were carried out in triplicate.
(§4) Initial screening of the 25 analogues was completed using the U87-MG cell line. The most promising analogues from the initial screening were taken forward and tested against the 1321-N1, GOS-3 and SVG-p12 cell lines. The results of all 4 cell lines were compiled and the analogues that were deemed to be the most promising drug candidates were tested against primary cultures at clinically relevant concentrations.
(In general: In ATP-based viability assays light output follows the ATP content of the culture.)

The subject of the next data set is SVGp12. The experiment in a line: CellTiter-Glo cytotoxicity against normal SVGp12 cell line. In kind it is cell-based. Particulars: Homo sapiens, 144 hours incubation, IC50 ± SD (n = 3). As for the experimental part: as §1, §2, §3, §4
Another data set concerns GOS-3. The experiment in a line: CellTiter-Glo cytotoxicity against GOS-3 cells. The data set is classed as cell-based. The settings on record: Homo sapiens; 144 hours incubation, IC50 ± SD (n = 3). On the procedure: as §1, §2, §3, §4
The subject of the next data set is 1321-N1. The experiment in a line: CellTiter-Glo cytotoxicity against 1321-N1 cells. The data set is classed as cell-based. Particulars: Homo sapiens, 144 hours incubation, IC50 ± SD (n = 3). As for the experimental part:
as §1, §2, §3, §4

The nature of data set [1]: Solubility in cell culture medium. In kind it is physicochemical. On the procedure: The maximum concentration that could be achieved in medium for amide analogues 4a and 4c was approximately 200 μM, at which IC50 values could not be generated and were also eliminated from further studies.
as §3

[2] abbreviates: initial screening, CellTiter-Glo, read-out: IC50 against U87-MG cells.
Where [3] appears, read: lead analogues (Table 2), read-out: IC50 U87-MG.

Molecules are shown by their SMILES. Like-named read-outs stand apart in the source and are kept apart here.

The IC50 is the concentration that inhibits the measured activity by half. Turning to `Cn1nnc2c(C(=O)O)ncn2c1=O` [TMZ acid, 3-methyl-4-oxo-3,4-dihydroimidazo[5,1-d][1,2,3,5]tetrazine-8-carboxylic acid], the IC50 in the data set on U87-MG cells (setting [2]) was 662 ± 42 µM; in the data set on U87-MG cells (setting [3]), 662 ± 42 µM; in the data set on SVGp12 it was 316 ± 2 µM; with GOS-3 it was 504 ± 30 µM; in the data set with 1321-N1, 596 ± 26 µM.

In general, melting point refers to the temperature, or range, at which the solid turns liquid. In turn, `COc1ccc(NC(=O)c2ncn3c(=O)n(C)nnc23)cc1` [Analogue 4d, N-(4-Methoxyphenyl)-3-methyl-4-oxo-3,4-dihydroimidazo[5,1-d][1,2,3,5]tetrazine-8-carboxamide] had a melting point of 192 °C. For the same compound, in data set [1], the “solubility in cell culture medium” value is “insoluble”.

Compound `CCOC(=O)c1ncn2c(=O)n(C)nnc12` [Analogue 3a, Ethyl 3-methyl-4-oxo-3,4-dihydroimidazo[5,1-d][1,2,3,5]tetrazine-8-carboxylate] registered a melting point of 130 °C. Further, the half-maximal inhibitory concentration (IC50) with U87-MG cells (setting [2]) amounted to 700 ± 109 µM.

As to `Cn1nnc2c(C(=O)NCc3ccc(Cl)cc3)ncn2c1=O` [Analogue 4k, N-(4-Chlorobenzyl)-3-methyl-4-oxo-3,4-dihydroimidazo[5,1-d][1,2,3,5]tetrazine-8-carboxamide], the melting point is 148 °C. For the same compound, the “solubility in cell culture medium” value in data set [1] is “insoluble”. In the data set on U87-MG cells (setting [3]), the half-maximal inhibitory concentration (IC50) came to 138 ± 28 µM. In the data set on SVGp12, this compound displayed a half-inhibitory concentration (IC50) of 79 ± 6 µM. Moreover, the IC50 with GOS-3 is greater than 200 µM. This compound also yielded a 50% inhibitory concentration (IC50) in the data set with 1321-N1 greater than 200 µM.

For the compound `Cn1nnc2c(C(=O)OCCc3ccc([N+](=O)[O-])cc3)ncn2c1=O` [Analogue 3d, 4-Nitrophenethyl 3-methyl-4-oxo-3,4-dihydroimidazo[5,1-d][1,2,3,5]tetrazine-8-carboxylate], the melting point came out at 187 °C. For the same compound, the “solubility in cell culture medium” value in data set [1] is given as “insoluble”.

The compound `Cn1nnc2c(C(=O)Nc3ccc(Cl)cc3)ncn2c1=O` [Analogue 4e, N-(4-Chlorophenyl)-3-methyl-4-oxo-3,4-dihydroimidazo[5,1-d][1,2,3,5]tetrazine-8-carboxamide] displayed a melting point of 200 °C. The “solubility in cell culture medium” value in data set [1] is “insoluble”.

In the case of `COc1ccccc1NC(=O)c1ncn2c(=O)n(C)nnc12` [Analogue 4h, N-(2-Methoxyphenyl)-3-methyl-4-oxo-3,4-dihydroimidazo[5,1-d][1,2,3,5]tetrazine-8-carboxamide], the melting point came out at 193 °C. For the same compound, the “solubility in cell culture medium” value in data set [1] is “insoluble”.

`COc1ccc(CNC(=O)c2ncn3c(=O)n(C)nnc23)cc1` [Analogue 4i, N-(4-Methoxybenzyl)-3-methyl-4-oxo-3,4-dihydroimidazo[5,1-d][1,2,3,5]tetrazine-8-carboxamide] gave a melting point of 193 °C. Besides, the “solubility in cell culture medium” value in data set [1] was “insoluble”.

The compound `Cn1nnc2c(C(=O)Nc3ccccc3)ncn2c1=O` [Analogue 4c, 3-Methyl-4-oxo-N-phenyl-3,4-dihydroimidazo[5,1-d][1,2,3,5]tetrazine-8-carboxamide] yielded a melting point of 189 °C. For the same compound, in data set [1], the “maximum concentration that could be achieved in medium” value was “approximately 200 μM” and the “solubility in cell culture medium” value is recorded as “insoluble”. Also, the half-maximal inhibitory concentration (IC50) in the data set on U87-MG cells (setting [2]) was greater than 200 µM.

`Cn1nnc2c(C(=O)OCCc3ccccc3)ncn2c1=O` [Analogue 3c, Phenethyl 3-methyl-4-oxo-3,4-dihydroimidazo[5,1-d][1,2,3,5]tetrazine-8-carboxylate] showed a melting point of 124 °C. For the same compound, the half-maximal inhibitory concentration (IC50) in the data set with U87-MG cells (setting [2]) is 615 ± 96 µM.

In turn, `CCCCCCNC(=O)c1ncn2c(=O)n(C)nnc12` [Analogue 4a, N-Hexyl-3-methyl-4-oxo-3,4-dihydroimidazo[5,1-d][1,2,3,5]tetrazine-8-carboxamide] registered a melting point of 138 °C. In data set [1], the “maximum concentration that could be achieved in medium” value was “approximately 200 μM” and the “solubility in cell culture medium” value was “insoluble”. Moreover, in the data set with U87-MG cells (setting [2]), the IC50 is greater than 200 µM.

The compound `Cc1ccc(CNC(=O)c2ncn3c(=O)n(C)nnc23)cc1` [Analogue 4j, 3-Methyl-N-(4-methylbenzyl)-4-oxo-3,4-dihydroimidazo[5,1-d][1,2,3,5]tetrazine-8-carboxamide] came in with a melting point of 152 °C. For the same compound, the concentration for half-maximal inhibition (IC50) with U87-MG cells (setting [2]) was determined as 139 ± 28 µM.

`CN(C)CCCOC(=O)c1ncn2c(=O)n(C)nnc12` [Analogue 3g, 3-(Dimethylamino)propyl 3-methyl-4-oxo-3,4-dihydroimidazo[5,1-d][1,2,3,5]tetrazine-8-carboxylate] registered a melting point of 204 °C. In the data set with U87-MG cells (setting [2]), the IC50 came out at 856 ± 20 µM.

`Cc1ccc(NC(=O)c2ncn3c(=O)n(C)nnc23)cc1` [Analogue 4g, 3-Methyl-4-oxo-N-(p-tolyl)-3,4-dihydroimidazo[5,1-d][1,2,3,5]tetrazine-8-carboxamide] showed a melting point of 209 °C. Also, the “solubility in cell culture medium” value in data set [1] is “insoluble”.

Regarding `COc1ccc(CCOC(=O)c2ncn3c(=O)n(C)nnc23)cc1` [Analogue 3e, 4-Methoxyphenethyl 3-methyl-4-oxo-3,4-dihydroimidazo[5,1-d][1,2,3,5]tetrazine-8-carboxylate], the melting point came to 164 °C. For the same compound, in data set [1], the “solubility in cell culture medium” value is listed as “insoluble”.

In turn, `COc1ccccc1OC(=O)c1ncn2c(=O)n(C)nnc12` [Analogue 3m, 2-Methoxyphenyl 3-methyl-4-oxo-3,4-dihydroimidazo[5,1-d][1,2,3,5]tetrazine-8-carboxylate] gave a melting point of 165 °C. Also, the IC50 in the data set with U87-MG cells (setting [2]) came out at 576 ± 91 µM.

Turning to `CCCCCCOC(=O)c1ncn2c(=O)n(C)nnc12` [Analogue 3b, Hexyl 3-methyl-4-oxo-3,4-dihydroimidazo[5,1-d][1,2,3,5]tetrazine-8-carboxylate], the melting point amounted to 76 °C. In the data set with U87-MG cells (setting [2]), the IC50 worked out at 409 ± 45 µM. Moreover, the IC50 in the data set on U87-MG cells (setting [3]) was 409 ± 45 µM. Moreover, the IC50 in the data set on SVGp12 is 182 ± 11 µM. For the same compound, the concentration for half-maximal inhibition (IC50) in the data set with GOS-3 was 269 ± 6 µM. 269 ± 20 µM corresponded to half-maximal inhibition with 1321-N1 (IC50).

In turn, `Cn1nnc2c(C(=O)NCCc3ccccc3)ncn2c1=O` [Analogue 4b, 3-Methyl-4-oxo-N-phenethyl-3,4-dihydroimidazo[5,1-d] [1,2,3,5]tetrazine-8-carboxamide] showed a melting point of 158 °C. In addition, in the data set with U87-MG cells (setting [2]), the IC50 is 548 ± 48 µM.

On to `COc1ccc(COC(=O)c2ncn3c(=O)n(C)nnc23)cc1` [Analogue 3f, 4-Methoxybenzyl 3-methyl-4-oxo-3,4-dihydroimidazo[5,1-d][1,2,3,5]tetrazine-8-carboxylate], for which the melting point is 170 °C. For the same compound, in data set [1], the “solubility in cell culture medium” value is “insoluble”.

For `Cn1nnc2c(C(=O)Nc3ccc(C#N)cc3)ncn2c1=O` [Analogue 4f, N-(4-Cyanophenyl)-3-methyl-4-oxo-3,4-dihydroimidazo[5,1-d][1,2,3,5]tetrazine-8-carboxamide], the melting point amounted to 234 °C. For the same compound, in data set [1], the “solubility in cell culture medium” value was “insoluble”.
